Data published in patent publication US6737383B1, “Herbicidal oxadiazolidines” (priority 1999, dated 2004).

Legend:
wheat = test: Test B pre/postemergence wheat; assay type: in vivo, Triticum aestivum
In short: (§1)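 Herbicidal effect was estimated by eye on a ten-point control scale after plants spent twelve to sixteen days in a greenhouse following soil or foliar treatment. Foliar sprays targeted plants at one to four leaves; all doses were formulated in a non-phytotoxic solvent with surfactant.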

morningglory = test: Test B pre/postemergence morningglory; assay type: in vivo, Ipomoea hederacea
In short: as §1

surinam grass = test: Test B pre/postemergence surinam grass; assay type: in vivo, Brachiaria decumbens
In short: as §1

rice = test: Test B flood test rice; assay type: in vivo, Oryza sativa
In short: (§2)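 Plants were grown to the 2-leaf stage before treatment with test chemical, then held in a greenhouse for twelve to sixteen days. Injury was visually rated against untreated controls on a 0–10 scale, where 0 is no effect and 10 is complete control.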

smallflower flatsedge = test: Test B flood test smallflower flatsedge; assay type: in vivo, Cyperus difformis
In short: as §2

wild oat = test: Test B pre/postemergence wild oat; assay type: in vivo, Avena fatua
In short: as §1

pigweed = test: Test B pre/postemergence pigweed; assay type: in vivo, Amaranthus retroflexus
In short: as §1

soybean = test: Test B pre/postemergence soybean; assay type: in vivo, Glycine max
In short: as §1

velvetleaf = test: Test B pre/postemergence velvetleaf; assay type: in vivo, Abutilon theophrasti
In short: as §1

rape = test: Test B pre/postemergence rape; assay type: in vivo, Brassica napus
In short: as §1

corn = test: Test B pre/postemergence corn; assay type: in vivo, Zea mays
In short: as §1

cocklebur = test: Test B pre/postemergence cocklebur; assay type: in vivo, Xanthium strumarium
In short: as §1

duck salad = test: Test B flood test duck salad; assay type: in vivo, Heteranthera limosa
In short: as §2

blackgrass = test: Test B pre/postemergence blackgrass; assay type: in vivo, Alopecurus myosuroides
In short: as §1

sugar beet = test: Test B pre/postemergence sugar beet; assay type: in vivo, Beta vulgaris
In short: as §1

giant foxtail = test: Test B pre/postemergence giant foxtail; assay type: in vivo, Setaria faberii
In short: as §1

[1] = Postemergence, Rate 62 g/ha, scale 0 to 10, 0 is no effect, 10 is complete control
[2] = Postemergence, Rate 125 g/ha, scale of 0 to 10 where 0 is no effect and 10 is complete control
[3] = Postemergence, Rate 250 g/ha, scale of 0 to 10, 0 is no effect, 10 is complete control
[4] = Preemergence, Rate 62 g/ha, scale of 0 to 10 where 0 is no effect and 10 is complete control
[5] = Preemergence, Rate 125 g/ha, scale of 0 to 10 where 0 is no effect and 10 is complete control
[6] = Preemergence, Rate 250 g/ha, scale 0 to 10 (0 no effect, 10 complete control)
[7] = Preemergence, Rate 500 g/ha, scale of 0 to 10 where 0 is no effect and 10 is complete control
[8] = Postemergence, Rate 500 g/ha, scale of 0 to 10 where 0 is no effect and 10 is complete control
[9] = Rate 62 g/ha, flood test species, Pre-emergence, visual evaluation after twelve to sixteen days
[10] = Rate 125 g/ha, under heading Pre-emergence, flood test species, visual evaluation after twelve to sixteen days
[11] = Rate 250 g/ha, Pre-emergence (flood test species), scale 0 to 10, 0 is no effect, 10 is complete control
[12] = Rate 500 g/ha, Pre-emergence section of Table B, 0 to 10 scale (0 no effect, 10 complete control)

CC(C)N(C(=O)n1oc(=O)n(CC(=O)C2CC2)c1=O)c1ccc(Cl)cc1 [Compound 639]
Plant response rating, Wheat (wheat; [1]): 0 | Plant response rating, Wheat (wheat; [2]): 0 | Wheat plant response rating (wheat; [3]): 0 | Wheat plant response rating (wheat; [4]): 0 | Wheat plant response rating (wheat; [5]): 0 | Plant response rating, Wheat (wheat; [6]): 0 | Plant response rating, Wheat (wheat; [7]): 0 | Plant response rating, Morningglory (morningglory; [1]): 0 | Plant response rating, Morningglory (morningglory; [2]): 3 | Morningglory plant response rating (morningglory; [3]): 7 | Plant response rating, Morningglory (morningglory; [8]): 7 | Morningglory plant response rating (morningglory; [4]): 0 | Morningglory plant response rating (morningglory; [5]): 0 | Plant response rating, Morningglory (morningglory; [6]): 0 | Plant response rating, Morningglory (morningglory; [7]): 0 | Plant response rating, B. signalgrass (surinam grass; [1]): 0 | Plant response rating, B. signalgrass (surinam grass; [2]): 0 | B. signalgrass plant response rating (surinam grass; [3]): 0 | Plant response rating, B. signalgrass (surinam grass; [8]): 2 | B. signalgrass plant response rating (surinam grass; [4]): 0 | B. signalgrass plant response rating (surinam grass; [5]): 0 | Plant response rating, B. signalgrass (surinam grass; [6]): 5 | Plant response rating, B. signalgrass (surinam grass; [7]): 7 | Plant response rating, Rice (0 to 10 scale, 0 is no effect, 10 is complete control) (rice; [9]): 0 | Rice plant response rating (0 to 10 scale, 0 is no effect, 10 is complete control) (rice; [10]): 0 | Rice plant response rating (rice; [11]): 0 | Rice plant response rating (rice; [12]): 0 | Plant response rating, S. Flatsedge (0 to 10 scale, 0 is no effect, 10 is complete control) (smallflower flatsedge; [9]): 0 | S. Flatsedge plant response rating (0 to 10 scale, 0 is no effect, 10 is complete control) (smallflower flatsedge; [10]): 0 | S. Flatsedge plant response rating (smallflower flatsedge; [11]): 0 | S. Flatsedge plant response rating (smallflower flatsedge; [12]): 0 | Plant response rating, Wild oats (wild oat; [1]): 1 | Plant response rating, Wild oats (wild oat; [2]): 1 | Wild oats plant response rating (wild oat; [3]): 1 | Wild oats plant response rating (wild oat; [4]): 0 | Wild oats plant response rating (wild oat; [5]): 0 | Plant response rating, Wild oats (wild oat; [6]): 0 | Plant response rating, Wild oats (wild oat; [7]): 3 | Plant response rating, Redroot pigweed (pigweed; [1]): 3 | Plant response rating, Redroot pigweed (pigweed; [2]): 4 | Redroot pigweed plant response rating (pigweed; [3]): 4 | Redroot pigweed plant response rating (pigweed; [4]): 0 | Redroot pigweed plant response rating (pigweed; [5]): 0 | Plant response rating, Redroot pigweed (pigweed; [6]): 2 | Plant response rating, Redroot pigweed (pigweed; [7]): 10 | Plant response rating, Soybean (soybean; [1]): 0 | Plant response rating, Soybean (soybean; [2]): 0 | Soybean plant response rating (soybean; [3]): 3 | Soybean plant response rating (soybean; [4]): 0 | Soybean plant response rating (soybean; [5]): 0 | Plant response rating, Soybean (soybean; [6]): 0 | Plant response rating, Soybean (soybean; [7]): 3 | Plant response rating, Velvetleaf (velvetleaf; [1]): 0 | Plant response rating, Velvetleaf (velvetleaf; [2]): 0 | Velvetleaf plant response rating (velvetleaf; [3]): 0 | Velvetleaf plant response rating (velvetleaf; [4]): 0 | Velvetleaf plant response rating (velvetleaf; [5]): 0 | Plant response rating, Velvetleaf (velvetleaf; [6]): 0 | Plant response rating, Velvetleaf (velvetleaf; [7]): 3 | Plant response rating, Rape (rape; [1]): 0 | Plant response rating, Rape (rape; [2]): 0 | Rape plant response rating (rape; [3]): 0 | Plant response rating, Rape (rape; [8]): 3 | Rape plant response rating (rape; [4]): 0 | Rape plant response rating (rape; [5]): 0 | Plant response rating, Rape (rape; [6]): 3 | Plant response rating, Rape (rape; [7]): 10 | Plant response rating, Corn (corn; [1]): 0 | Plant response rating, Corn (corn; [2]): 0 | Corn plant response rating (corn; [3]): 0 | Plant response rating, Corn (corn; [8]): 0 | Corn plant response rating (corn; [4]): 0 | Corn plant response rating (corn; [5]): 0 | Plant response rating, Corn (corn; [6]): 0 | Plant response rating, Corn (corn; [7]): 0 | Plant response rating, Cocklebur (cocklebur; [1]): 0 | Plant response rating, Cocklebur (cocklebur; [2]): 0 | Cocklebur plant response rating (cocklebur; [3]): 2 | Plant response rating, Cocklebur (cocklebur; [8]): 2 | Cocklebur plant response rating (cocklebur; [4]): 0 | Cocklebur plant response rating (cocklebur; [5]): 0 | Plant response rating, Cocklebur (cocklebur; [6]): 0 | Plant response rating, Cocklebur (cocklebur; [7]): 2 | Plant response rating, Ducksalad (0 to 10 scale, 0 is no effect, 10 is complete control) (duck salad; [9]): 0 | Ducksalad plant response rating (0 to 10 scale, 0 is no effect, 10 is complete control) (duck salad; [10]): 0 | Ducksalad plant response rating (duck salad; [11]): 0 | Ducksalad plant response rating (duck salad; [12]): 0 | Plant response rating, Blackgrass (blackgrass; [1]): 0 | Plant response rating, Blackgrass (blackgrass; [2]): 0 | Blackgrass plant response rating (blackgrass; [3]): 2 | Plant response rating, Blackgrass (blackgrass; [8]): 6 | Blackgrass plant response rating (blackgrass; [4]): 0 | Blackgrass plant response rating (blackgrass; [5]): 0 | Plant response rating, Blackgrass (blackgrass; [6]): 2 | Plant response rating, Blackgrass (blackgrass; [7]): 2 | Plant response rating, Sugarbeets (sugar beet; [1]): 0 | Plant response rating, Sugarbeets (sugar beet; [2]): 0 | Sugarbeets plant response rating (sugar beet; [3]): 0 | Sugarbeets plant response rating (sugar beet; [4]): 0 | Sugarbeets plant response rating (sugar beet; [5]): 0 | Plant response rating, Sugarbeets (sugar beet; [6]): 0 | Plant response rating, Sugarbeets (sugar beet; [7]): 6 | Plant response rating, Giant foxtail (giant foxtail; [1]): 0 | Plant response rating, Giant foxtail (giant foxtail; [2]): 0 | Giant foxtail plant response rating (giant foxtail; [3]): 6 | Plant response rating, Giant foxtail (giant foxtail; [8]): 7 | Giant foxtail plant response rating (giant foxtail; [4]): 7 | Giant foxtail plant response rating (giant foxtail; [5]): 9 | Plant response rating, Giant foxtail (giant foxtail; [6]): 9 | Plant response rating, Giant foxtail (giant foxtail; [7]): 9
